# Tests used:
# [1] = test system: A/J mice; experiment: Ovalbumin asthma model: airway hyperreactivity, leukocyte infiltration, cytokines (nebulization); format: in vivo; settings: for airway hyperreactivity (lung resistance and elastance after methacholine): nebulization 2% for 30 minutes, OVA sensitized and challenged; for IL-5 generation in lung tissue / IL-13 generation in lung tissue / eotaxin-2 generation in lung tissue / increased production of eotaxin-1: nebulization 2%
# Protocol: Male A/J mice (18-20 g), coming from the Laboratory Animal Breeding Center of Oswaldo Cruz Foundation, were used in the experiments. The animals were previously sensitized with a mixture of ovalbumin (OVA) (50 μg) (Grade V; Sigma, St. Louis, Mo., USA) and aluminum hydroxide (5 mg) administered subcutaneously on day 0 with boost on day 14 (equal suspension administered intraperitoneally). Nasal instillations of OVA (25 μg/25 μl in sterile 0.9% NaCl) were administered on days 14, 21, 28 and 35, with the hyperresponsiveness analysis performed 24 hours after the last challenge. […] That is, the treatments took place after the installation of asthma framework, reflecting a therapeutic action of the respective compounds analyzed.
# The effect of the treatments on bronchial hyperreactivity was investigated by measuring the resistance changes and pulmonary elastance, using invasive barometric plethysmography whole-body system (Buxco, USA), as previously described (Olsen et al., 2012).
# [2] = test system: A/J mice; experiment: Methacholine-induced bronchospasm (Penh), whole-body plethysmography; format: in vivo; settings: for blocking of methacholine-induced increase of Penh (cholinergic bronchospasm): 30 and 100 mg/kg orally
# Protocol: A/J mice of both sexes were used, weighing between 18 and 20 g, coming from the Laboratory Animal Breeding Center of Oswaldo Cruz Foundation. Using barometric whole-body plethysmography (Buxco Research System, Wilmington, N.C.), bronchospasm responses caused by subsequent inhalations of methacholine (12, 25 and 50 mg/ml for 2.5 minutes, 5-minute intervals) were measured in standard A/J mice, awake, not immobilized, as previously reported (Coelho et al., 2008; Hamelmann et al., 1997). Penh measures in response to methacholine challenge were performed 1 hour and 3 hours after treatment with JME-207 and JME-209 (30 and 100 mg/kg) administered orally (gavage).
# [3] = test system: mast cells of the RBL-2H3 line; experiment: Antigen-induced degranulation of sensitized mast cells (beta-hexosaminidase release); format: cell-based; settings: Rattus norvegicus; for IC50: RBL-2H3, 1 h, RBL-2H3, DNP-BSA 10 ng/ml, 60 minutes treatment, read-out: IC50 blocking of anaphylactic mast cell degranulation; for Emax: RBL-2H3, DNP-BSA, read-out: EMAX blocking of anaphylactic mast cell degranulation
# Protocol: For this study, mast cells of the RBL-2H3 line were used, as previously reported (Beaven et al., 1987). […] The cells were then dissociated from the plate using trypsin, centrifuged at 1000 rpm for 5 minutes and distributed in 48-well plates at a density of 125,000 cells per well. The cells were sensitized with monoclonal DNP-specific […] (1 μg/mL) diluted in the same medium used for the cultivation and maintained in the oven for 20 hours. After this period, the cells were washed with Tyrode-gelatin and subjected to treatment with increasing concentrations of […]-209 or mexiletine for 60 minutes. Then, incubation was performed with DNP-BSA (10 ng/ml) for a further period of 60 minutes. After this period, 10 μL of supernatant were collected from each well and added to a 96-well plate. The cells were lysed with 200 μL of 0.1% Triton X-100 and 10 μL of the lysate of each plate were added to the 96-well plate. Then, 40 μL of substrate for the β-hexosaminidase enzyme were added to the samples. After 40 minutes of reaction, reaction stopping solution (0.2 M glycine) was added, generating a colorimetric response, which was measured by spectrophotometer (λ=405 nm).
# [4] = test system: A/J mice; experiment: LPS-induced lung inflammation and airway hyperreactivity; format: in vivo
# Protocol: Male A/J mice (18-20 g), coming from the Laboratory Animal Breeding Center of Oswaldo Cruz Foundation, were used in the experiments. The mice were anesthetized with halothane aerosol ([…], SP, Brazil) to receive intranasal administration of LPS (25 μg/25 μl 0.9% NaCl, instillation) or 0.9% NaCl (25 μl) (negative control). […] Obtaining of bronchoalveolar lavage, as well as the total and differential leukocyte counts carried out in this effluent, were made as previously described (Kummerle et al., 2012). Thus, after 18 hrs of LPS instillation, the mice were sacrificed by terminal anesthesia with thiopental (500 mg/kg). Then, they had the trachea dissected and cannulated. Bronchoalveolar lavage (BAL) was performed by 3 consecutive lavages of 800 μl of PBS containing EDTA (10 mM). The lavages were then subjected to centrifugation (1500 rpm-10 minutes) and the cell “pellet” resuspended in the volume of 0.5 ml of PBS/EDTA solution 10 mM. The total leukocyte count from the lavage was performed in a Neubauer chamber by light microscopy (100× magnification), diluting an aliquot of the cell suspension from the lavage in TPrk liquid (1:40). The differential counting was performed on cytocentrifuged, which were stained with May-Grunwald-Giemsa and assessed using oil immersion objective (1000× magnification) (Kummerle et al., 2012). The airway hyperreactivity was also assessed 18 hours after LPS, by exposing the animals to increasing concentrations of aerosolized methacholine (3-27 mg/ml) in FinePoint R/C Buxco® system (Buxco Electronics, Sharon, Conn., USA). The mice were anesthetized with Nembutal (60 mg/kg, i.p.) for the tracheostomy procedure and connection of the animal to mechanical ventilation and pneumotachograph of the FinePoint platform. The neuromuscular activity was blocked with pancuronium bromide (1 mg/kg, i.v.) to enable the pulmonary resistance records (cm H20/mL/s) and elastance (cm H20/mL) in each respiratory cycle, as previously reported (Olsen et al., 2011).
# [5] = test system: A/J mice; experiment: Acute airway inflammation induced by cigarette smoke; format: in vivo; settings: JME-209 30 and 100 mg/kg
# Protocol: Male A/J mice (18-20 g), coming from the Laboratory Animal Breeding Center of Oswaldo Cruz Foundation, were used in the experiments. The animals were placed in a chamber and subjected to an atmosphere enriched with 100 ml of smoke from 4 filter cigarettes (trade mark) for 1 minute on four consecutive days. Control animals were exposed to the condition in which cigarette smoke was replaced by equal volume of ambient air (Castro et al., 2009).
# […] The compounds were dissolved in 0.9% NaCl just prior to administration.
# Obtaining of bronchoalveolar lavage, as well as the total and differential leukocyte counts carried out in this effluent, were made as previously described (Olsen et al., 2011). Thus, after 24 hrs of the last exposure to cigarette smoke, the mice were sacrificed by terminal anesthesia with thiopental (500 mg/kg). Then, they had the trachea dissected and cannulated BAL was performed by 3 consecutive lavages of 800 μl of PBS containing EDTA (10 mM). The lavages were then subjected to centrifugation (1500 rpm-10 minutes) and the cell “pellet” resuspended in the volume of 0.5 ml of PBS/EDTA solution 10 mM. The total leukocyte count from the lavage was performed in a Neubauer chamber by light microscopy (100× magnification), diluting an aliquot of the cell suspension from the lavage in TPrk liquid (1:40). The differential counting was performed on cytocentrifuged, which were stained with May-Grunwald-Giemsa and assessed using oil immersion objective (1000× magnification).
# [6] = test system: tracheal rings; experiment: Anaphylactic (ovalbumin-induced) contraction of tracheal rings from sensitized rats; set-up: species or system Wistar rats; settings: compound 30 μM
# Protocol: In this study, Wistar rats of both sexes were used, weighing between 200 and 250 g, coming from the Laboratory Animal Breeding Center of Fundacdo Oswaldo Cruz. As described previously (da Costa et al., 2007), the animals were sensitized by injection into the dorsal subcutaneous tissue with mixture containing 50 μg of ovalbumin and 5 mg of aluminum hydroxide on days 0 and 7. On the 14th day after the first sensitization, the animals were sacrificed for the removal of the trachea. After a stabilization period of 30 minutes, the tracheal rings were contracted initially with carbachol (2.5 μM) for testing the feasibility and reproducibility of the responses of the preparation.
# The tracheal rings were exposed to increasing concentrations of JME-173 (3-30 μM), or carrier (0.9% NaCl) for 30 minutes before the triggering of the contractile response triggered by ovalbumin (100 μg/ml). Salmeterol (30 μM) was used as reference treatment. The responses were expressed as mean±Standard Error of the Mean of at least 5 tracheal segments. All results were expressed as percentage of the contraction produced by 2.5 μM of carbachol.
# [7] = test system: rat tracheas pre-contracted with carbachol; experiment: Relaxation of rat trachea pre-contracted with carbachol
# Protocol: To assess the potential relaxing effect of the respiratory smooth muscle, rat tracheas were obtained and maintained in an isolated organ bath, as previously described (Coelho et al., 2008). The tracheal segments were then pre-contracted with carbachol at the concentration of 2.5 μM and subjected to increasing concentrations of the tested compounds. All results were expressed as percentage of the contraction produced by carbachol (Coelho et al., 2008).
# [8] = test system: rat tracheal rings; experiment: Inhibition of carbachol-induced contraction of rat tracheal rings (pretreatment); settings: Rattus norvegicus
# Description: In this study, Wistar rats of both sexes were used, weighing between 200 and 250 g, coming from the Laboratory Animal Breeding Center of Fundacdo Oswaldo Cruz. As previously described (Coelho et al., 2008), the animals were sacrificed by exposure to air atmosphere enriched with CO2, Then, the anterior cervical region was opened so that the trachea could be located and removed. It was then transferred to a Petri dish containing Krebs solution with the following composition (mM): NaCl (118), KCl (4.8), CaCl2 (2.5), MgSO4 (1.2), KH2PO4 (1.2), NaHCO3 (24), and glucose (11). The total segment was divided into fragments of about 3 to 4 rings, which were kept in another Petri dish containing Krebs solution. Each fragment was mounted vertically on a 10 ml cuvette with Krebs solution maintained at 37° C. and aerated with carbogen mixture (95% O2 and 5% CO2). The lower rod is fixed to the cuvette base and the top portion was attached to the isometric transducer for measuring the voltage variation of the fragment. The transducer was connected to a device which transforms the voltage variation in digital record. The fragments were subjected to a basal voltage of 1 g and were calibrated, so that the subsequent contractions could be expressed as a percentage of this 1 g voltage. The solutions were introduced inside the cuvettes with the aid of an automatic pipette. The end of the tip was always placed at the same height and position, without touching the muscle. The tracheal rings were initially contracted with 2.5 μM of carbachol. When the contractions reached the plateau, each segment was washed until the total relaxation of the smooth muscle. […] All results were expressed as percentage of the contraction produced by 2.5 μM of carbachol (Coelho et al., 2008).
# [9] = 30 and 100 mg/kg orally 1 hour before LPS
smiles,measurement,setting,value
CC(N)COc1cccc(I)c1.Cl (centres unmarked) [JME-141],airway hyperreactivity (lung resistance and elastance after methacholine),[1],abolished
CC(N)COc1ccc(F)c(Cl)c1.Cl (centres unmarked) [JME-188],IL-5 generation in lung tissue,[1],equally sensitive
same,IL-13 generation in lung tissue,[1],equally sensitive
same,eotaxin-2 generation in lung tissue,[1],inhibited
same,increased production of eotaxin-1,[1],failed to modify
same,airway hyperreactivity (lung resistance and elastance after methacholine),[1],abolished
CC(N)COc1ccc(-c2ccccc2)cc1.Cl (centres unmarked) [JME-209],action time,[2]; 100 mg/kg orally,at least 3 hours
same,blocking of methacholine-induced increase of Penh (cholinergic bronchospasm),[2]; 1 hour after treatment,slight blocking
same,blocking of methacholine-induced increase of Penh (cholinergic bronchospasm),[2]; 3 hours after treatment,active only at the highest dose
same,IC50,[3],28.6 µM
same,Emax,[3],100%
same,increase in the number of mononuclear cells in bronchoalveolar lavage,[4]; [9],without significantly altering
same,levels of eosinophils in bronchoalveolar lavage,[4]; [9],reducing
same,levels of neutrophils in bronchoalveolar lavage,[4]; [9],reducing
same,leukocyte infiltration in bronchoalveolar space,"[4]; 30 and 100 mg/kg orally 1 hour before LPS, 18 hours after challenge",inhibited
same,airway hyperreactivity (lung resistance and elastance),"[4]; oral treatment 1 hour before LPS, 18 hours after LPS",inhibited
same,eosinophils in bronchoalveolar effluent,"[5]; dexamethasone 1 mg/kg, orally",blocked
same,mononuclear cells in bronchoalveolar effluent,"[5]; dexamethasone 1 mg/kg, orally",blocked
same,neutrophils in bronchoalveolar effluent,"[5]; dexamethasone 1 mg/kg, orally",blocked
same,accumulation of total leukocytes in bronchoalveolar space,"[5]; dexamethasone 3 mg/kg, orally 1 hr before smoke",significantly inhibited
"OCc1cc(C(O)CNCCCCCCOCCCCc2ccccc2)ccc1O (centres unmarked) [salmeterol, reference compound]",blocking of anaphylactic contraction,[6],52%
Cc1cc(I)ccc1OCC(C)N.Cl (centres unmarked) [JME-207],blocking of methacholine-induced increase of Penh (cholinergic bronchospasm),[2]; 3 hours after treatment,significantly inhibited
same,EC50,"[7]; Rattus norvegicus, trachea pre-contracted with carbachol 2.5 μM, mean±SEM",1 mM
same,times more potent as relaxation inducers than mexiletine,[7]; pre-contracted trachea,146 times
same,maximum relaxation effect,"[7]; trachea pre-contracted with carbachol 2.5 μM, mean±SEM",111%
same,IC50,[3],2.3 µM
same,Emax,[3],94%
same,IL-5 generation in lung tissue,[1],equally sensitive
same,IL-13 generation in lung tissue,[1],equally sensitive
same,eotaxin-2 generation in lung tissue,[1],only the latter inhibited
same,increased production of eotaxin-1,[1],failed to modify
same,airway hyperreactivity (lung resistance and elastance after methacholine),[1],abolished
same,IC50,"[8]; carbachol 10 μM, pretreated 10 minutes",40.9 µM
same,Emax,"[8]; carbachol 10 μM, pretreated 10 minutes, mean ± SEM, read-out: EMAX maximum effect of inhibition of carbachol-induced contraction",92.9 ± 4.3%
same,inhibition at 100 µM,"[8]; compound 100 μM, pre-treatment 10 minutes, read-out: inhibition of the muscarinic contraction",~93%

# Source: patent US20160214926A1, “DIPHENYLOXYALKYLAMINE DERIVATIVES AND ARYLOXYALKYLAMINE DERIVATIVES, PHARMACEUTICAL COMPOSITION, USE OF SAID PHARMACEUTICAL COMPOSITION FOR TREATING, PREVENTING OR INHIBITING CHRONIC PULMONARY INFLAMMATORY DISEASES AND METHOD FOR TREATING OR PREVENTING SUCH DISEASES” (FUNDACAO OSWALDO CRUZ, priority 2013, published 2016)
